From PMC12592400, “A unique inhibitor conformation selectively targets the DNA polymerase PolC of Gram-positive priority pathogens” (Nature Communications, 2025)
“And” between values parts separate entries of the source, which are not always exact repeats. Equal entries are not always repeated.

Columns and labels:
[1] = tested on: E. faecium PolC^F1276L (exonuclease-inactivated); experiment: Real-time DNA primer extension assay; format: biochemical, Enterococcus faecium; details: versus wild-type PolC
Description: (§1) The genes for PolC (locus_tag: MIBBHLJO_01574) and DnaE (locus_tag: MIBBHLJO_00911) from E. faecium ATCC 700221 were codon-optimized for expression in E. coli and synthesized in vector pET28b by Twist Bioscience (San Francisco, CA). Expression constructs for variant PolC proteins were created with QuikChange Site-Directed Mutagenesis (Agilent) with oligonucleotides listed in Supplementary Table 3. F1276L, F1276S, and A1281T were introduced to assess the effect of these mutations on inhibition by ACX compounds. Mutations D972A and D974A were introduced to inactivate the polymerase activity and mutations D431A and E433A were introduced to inactivate the exonuclease activity (Fig. 1d, Supplementary Fig. 1).
(§2) Polymerase activity was monitored in real-time[31],[32] with a 42-nt long 5’ carboxyfluorescein-labelled DNA oligonucleotide template strand (DNASP8_42) annealed to a 30-nt primer oligonucleotide (oMU014). Polymerase activity in this assay is monitored by measuring fluorescence quenching of the labelled DNA template as a result of primer extension by PolC (for details see Supplementary Fig. 1b, c). Both primers were HPLC purified. Primer extension assays were performed in Reaction Buffer (see Gel-based polymerase and exonuclease assays) supplemented with 0.5 mg/mL BSA, 0.05% Tween20 and 25 uM of each dNTP (SRB) in 384-well Black Round Bottom plates (Corning 4514). The polymerase was diluted in the SRB and incubated for at least 5 min in the presence of inhibitor or solvent, with a final solvent concentration of 1%. The reaction was initiated by the addition of an equal volume of DNA substrate in SRB as described below. Fluorescence emission data was collected with a BMG Labtech PHERAstar FSX reader for 30 min at room temperature.
(§3) Compounds were dispensed with an Echo acoustic liquid handler (Beckman Coulter). All compounds were dissolved to 1 mM and 10 mM stocks in 100% DMSO and transferred to Echo LDV or PP source plates (Labcyte, Inc., CA), then dispensed to 384-well plates with a Labcyte Echo550 or Echo650 acoustic dispenser at volumes of 2.5 to 100 nL per well. […] A Mantis microfluidic liquid dispenser (Formulatrix) was used to dispense 5 µL polymerase and 5 µL substrate DNA (individually diluted in SRB) per well. […] The final concentration of DNA was 70 nM.
(§4) Data were analysed and standard error of the means (SEM) determined in Prism 8.4.2 and 10.2.3 (GraphPad). Raw time-course polymerase activity was plotted against time, with SEM of triplicates determined. The rate of activity (represented by signal quenching) was determined during the first 8 min (linear stage) by calculating the slope of fluorescence intensity change (converted to a positive value) over time (in seconds). The slopes were then normalized to percentage activity (%); per ‘replicate range’, 100% activity was defined as polymerase activity in the absence of inhibitor (polymerase control), and 0% activity was determined in the absence of polymerase (DNA signal; negative control). The SEM was determined between ‘replicate ranges’. The IC50 was determined using the dose-response (inhibition) nonlinear regression ‘[Inhibitor] vs. response (three parameters)’ without constraints.

[2] = molecular target: T1, E. faecium PolC^F1276S (exonuclease-inactivated) (Enterococcus faecium, UniProt A0A9X4B319, D429A/E431A/F1274S); experiment: Real-time DNA primer extension assay; format: biochemical; details: for rate of activity (slope of fluorescence intensity change over time): Fig. 4b source data, F1267S
T1 sequence (A0A9X4B319 1-1450 D429A/E431A/F1274S): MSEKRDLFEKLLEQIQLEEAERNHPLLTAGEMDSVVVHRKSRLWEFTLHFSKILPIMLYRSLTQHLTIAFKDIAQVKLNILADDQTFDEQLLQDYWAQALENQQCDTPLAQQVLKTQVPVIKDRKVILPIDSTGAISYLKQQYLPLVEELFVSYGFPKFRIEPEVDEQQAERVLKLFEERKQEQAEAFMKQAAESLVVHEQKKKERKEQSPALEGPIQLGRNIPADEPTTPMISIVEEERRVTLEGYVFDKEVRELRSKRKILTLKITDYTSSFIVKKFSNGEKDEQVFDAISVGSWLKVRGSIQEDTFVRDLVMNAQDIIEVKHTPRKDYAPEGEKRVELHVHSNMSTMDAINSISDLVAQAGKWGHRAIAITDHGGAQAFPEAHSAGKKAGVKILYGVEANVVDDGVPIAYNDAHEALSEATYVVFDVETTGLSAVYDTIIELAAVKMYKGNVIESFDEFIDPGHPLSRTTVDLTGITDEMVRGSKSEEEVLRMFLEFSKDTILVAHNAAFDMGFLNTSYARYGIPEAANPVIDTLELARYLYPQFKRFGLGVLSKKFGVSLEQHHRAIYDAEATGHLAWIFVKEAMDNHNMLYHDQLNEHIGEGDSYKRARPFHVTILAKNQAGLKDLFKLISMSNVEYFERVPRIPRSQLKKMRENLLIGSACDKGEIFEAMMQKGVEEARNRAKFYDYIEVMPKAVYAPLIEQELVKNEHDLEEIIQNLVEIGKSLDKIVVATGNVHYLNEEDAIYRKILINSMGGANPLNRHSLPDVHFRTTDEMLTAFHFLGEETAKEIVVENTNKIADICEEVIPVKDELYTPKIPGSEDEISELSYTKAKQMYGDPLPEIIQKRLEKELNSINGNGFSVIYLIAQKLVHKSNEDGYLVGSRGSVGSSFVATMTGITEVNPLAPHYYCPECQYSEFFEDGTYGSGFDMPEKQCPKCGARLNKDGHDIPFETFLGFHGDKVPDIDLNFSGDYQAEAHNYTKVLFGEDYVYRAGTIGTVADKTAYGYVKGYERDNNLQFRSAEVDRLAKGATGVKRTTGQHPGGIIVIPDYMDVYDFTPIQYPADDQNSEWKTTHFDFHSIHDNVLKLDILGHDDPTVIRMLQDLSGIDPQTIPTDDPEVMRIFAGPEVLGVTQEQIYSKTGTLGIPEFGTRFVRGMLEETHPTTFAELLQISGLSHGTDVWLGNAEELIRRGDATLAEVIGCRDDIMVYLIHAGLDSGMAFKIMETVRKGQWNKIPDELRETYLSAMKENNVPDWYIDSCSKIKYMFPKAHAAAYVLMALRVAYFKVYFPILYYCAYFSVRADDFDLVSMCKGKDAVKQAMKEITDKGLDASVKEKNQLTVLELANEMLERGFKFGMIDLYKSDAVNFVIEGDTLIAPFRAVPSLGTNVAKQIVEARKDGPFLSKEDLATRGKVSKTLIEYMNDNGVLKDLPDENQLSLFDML
Description: as §1, §2, §3, §4

SMILES	increase of IC50 by the F1276L mutation [1] [fold]	IC50 [2] [µM]	rate of activity (slope of fluorescence intensity change over time) ([2]; inhibitor 1 uM)	rate of activity (slope of fluorescence intensity change over time) ([2]; inhibitor 1.75 uM)	rate of activity (slope of fluorescence intensity change over time) ([2]; inhibitor 2.5 uM)	rate of activity (slope of fluorescence intensity change over time) ([2]; inhibitor 4 uM)	rate of activity (slope of fluorescence intensity change over time) ([2]; inhibitor 5.75 uM)	rate of activity (slope of fluorescence intensity change over time) ([2]; inhibitor 8.8 uM)	rate of activity (slope of fluorescence intensity change over time) ([2]; inhibitor 20 uM)	rate of activity (slope of fluorescence intensity change over time) ([2]; inhibitor 30 uM)	rate of activity (slope of fluorescence intensity change over time) ([2]; inhibitor 45 uM)	rate of activity (slope of fluorescence intensity change over time) ([2]; inhibitor 67.5 uM)	rate of activity (slope of fluorescence intensity change over time) ([2]; inhibitor 100 uM)	rate of activity (slope of fluorescence intensity change over time) ([2]; inhibitor 225 uM)	rate of activity (slope of fluorescence intensity change over time) ([2]; inhibitor 150 uM)
O=c1[nH]c(NCc2ccc3c(c2)OC(F)(F)O3)nc2c(F)nn(CCO)c12 [ACX-801, 5-(((2,2-difluorobenzo[d][1,3]dioxol-5-yl)methyl)amino)-3-fluoro-1-(2-hydroxyethyl)-1,6-dihydro-7H-pyrazolo[4,3-d]pyrimidin-7-one]	> 19	101 ± 8.8	29.5 and 29.8 and 30.7	30.8 and 30.2 and 30.4	31.6 and 32.7 and 27.4	31.4 and 30.5 and 33.1	30.4 and 30.7 and 31.4	31.4 and 31.3 and 30.8	28.6 and 27.8	22.8 and 24.4 and 24.1	18.0 and 19.1	14.6 and 12.2	10.5 and 12.0 and 13.4	6.1 and 6.2 and 5.0	–
O=c1[nH]c(NCc2ccc(Cl)c(Cl)c2)nc2ncn(CCN3CCOCC3)c12 [IBZ, N^2-(3,4-dichlorobenzyl)-7-(2-[1-morpholinyl]ethyl)guanine]	> 48	> 225	29.0 and 29.8 and 31.7	30.0 and 28.9 and 29.5	26.9 and 26.5 and 27.3	31.2 and 29.8 and 29.5	28.2	25.6 and 30.1 and 32.4	30.9 and 27.1 and 31.2	29.0 and 27.4	31.6 and 29.8 and 28.0	29.0 and 32.1 and 30.5	28.6 and 28.2	28.0 and 22.8	27.2 and 24.9 and 25.9
